What all share (assay type): cell-based, human
One assay concerns IL-8 gene. The assay is described as follows: Affymetrix gene array of BiP treated monocytes. To be noted: monocytes cultured with BiP for 24 h compared with unstimulated monocytes. From the text: This was confirmed in two Affymetrix™ gene arrays and also in an inflammatory cytokine gene array.
The transcription profiles of the BiP stimulated and unstimulated MO were generated using the Human GeneChip U95Av2 which simultaneously measures 12500 gene transcripts. To identify genes differentially expressed in the presence of BiP, comparisons were made between the transcription profiles obtained from the MO using the analysis software dChip version 1.2 (32).

The next assay deals with T cells. The assay is described as follows: Regulatory markers on T cells co-cultured with BiP-treated dendritic cells. How it is done:
FIG. 11: Co-culture of T cells with BiP-treated dendritic cells (DC) upregulates regulatory markers. […] Mean ±standard deviation of three experiments is shown.
Intracellular staining was carried out with fixed cells incubated with 1% paraformaldehyde in IF buffer for 5 minutes at room temperature. The cells were washed twice with IF buffer containing 0.3% saponin for permeabilization. 0.3% saponin was then present in all IF buffer used thereafter. CTLA-4/CD152 (BD), FoxP3 (eBioscience) and indolamine 2,3-dioxygenase (Santa Cruz) and cytokines required intracellular staining. Antibodies were added at the pre-determined optimal concentration for 20 mins and then the cells were washed twice with IF buffer and analysed. Isotype controls, IgG1 and IgG2a (Becton Dickinson, Oxford, UK) were used in parallel. Cells were analysed on a FACScan cytometer using Cellquest software (Becton Dickinson, Oxford, UK).
T cells were purified from peripheral blood mononuclear cells and set up in culture with either allogeneic or autologous dendritic cells, which had been washed and irradiated, at a ratio of 10 T cells:1 DC. The cells were co-cultured in a 24 well plate in 1 ml/well, in RPMI 1640 supplemented with 10% foetal calf serum, for 4 days then the T cells were removed and washed before being investigated for the presence of T regulatory cells (see below)
Immunofluorescent staining was performed, as described previously (39), on DC harvested at day 7, T cells after 4 days co-culture with DC. Saturating concentrations of fluorescein isothiocyanate (FITC)-, phycoerythrin (PE) or peridium chlorophyll (Per-CP)-conjugated mAb were added recognizing CD14, CD86, CD80, HLA-DR, CD11c, CD1a, CD83, CD85j, IL-10 receptor; purity of the negatively selected MO and T cells was checked using CD3, CD4, CD14, CD20 and CD57 (all from Becton Dickinson/PharMingen (BD), Oxford, UK). Intracellular staining was carried out following fixation of cells with 1% paraformaldehyde for 5 minutes. Cells were then washed with immunofluorescence buffer (PBS/0.1% BSA/0.05% azide) containing 0.3% saponin. 0.3% saponin was then present in all solutions thereafter. CD152/CTLA-4 (BD, Oxford UK) and IDO (Santa Cruz, Autogen Bioclear, UK) were intracellular stains. Isotype controls, IgG1 and IgG2a (BD, Oxford, UK) were used in parallel. Cells were analysed on a FACScan/FACScalibur cytometers using Cellquest software (BD, Oxford, UK).

In the next assay the test system is IL-8. Briefly: IL-8 production by dendritic cells (cytometric bead array). The settings on record: iDC and mDC, BiP 20 μg/ml, 7d culture (FIG. 7). From the text:
In a series of experiments IL-8 was detected using cytometric bead array (Becton Dickinson) where the mean fluorescence intensity (MFI) is proportional to the concentration of cytokine.

Assay [1] concerns autologous responder T cells. Briefly: Regulatory T cell activity after co-culture with DC(BiP): responder T cell proliferation to anti-CD3. As to the method:
FIG. 12: Co-culture with BiP-treated dendritic cells (DC) leads T cells to have regulatory function. After 4d pre-incubation with either autologous or allogeneic DC, or DC(BiP), T cells were washed and set up in autologous cultures with irradiated peripheral blood mononuclear cells (PBMC) and responder T cells (1:1:1 ratio) (105 cells each/well) in the presence or absence of anti-CD3 antibody (1/2000 dilution). […] (B) a representative experiment showing an autologous experiment using Δ counts per minute (Δcpm) (stimulated-unstimulated cpm) following stimulation with anti-CD3 antibody to irradiated PBMC (irMC) or responder T cells (rT) alone and cultures with irMC+rT+T cells prestimulated (pT) by autologous DC populations as indicated; (C) mean ±standard deviation of unstimulated and stimulated cultures from a representative experiment where autologous irMC+rT+pT, previously cocultured with allogeneic DC populations as indicated, were present in ratio 1:1:1.
Purified T cells (>95% T cells) (2.10^6/well) either autologous or allogeneic were cultured in the absence or presence of irradiated DC populations in 24-well flat-bottomed plates at a IDC: 10 T cell ratio for 4 days. […]

On to “BiP: 78 kD endoplasmic reticulum chaperone protein as disclosed in WO 00/21995; recombinant human protein”, for which the IL-8 gene expression result in the assay on IL-8 gene is “downregulated the IL-8 gene”. Further, in the assay with T cells (FIG. 11B), the “intracellular CTLA-4 in T cells in contact with mDC(BiP)” value is “significant upregulation of intracellular CTLA-4”. In the assay on T cells (after 4d contact with mDC(BiP), n=5), the “T cell surface expression for CD4CD25hiCD27hi” value was 2.5±0.2%. Further, in the assay with T cells (after contact with BiP treated DC, n=4), the “intracellular CTLA-4/CD152 in T cells” value worked out at 31±12. For the same substance, in the assay on T cells (after contact with mDC(BiP), n=4), the “cell surface CCR4 on T cells” value turned out to be 17.3±2.0%. Further, the “IL-8 production (MFI) in culture supernatants” value in the assay on IL-8 was “suppressed IL-8 production”. In addition, the “% inhibition of responder T cell proliferation to anti-CD3 antibody” value is 28.7±13.3 % inhibition in assay [1] (T cells from 4d co-culture with allogeneic DC(BiP), n=3) and 63.8±13.7 % inhibition in assay [1] (T cells from 4d co-culture with autologous DC(BiP), n=5).

These data come from patent US20080155704A1, “Methods and Compositions for Determining in vivo Activity of BiP” (King's College London, priority 2006, published 2008).
